This is an account of results in US8088815B2, “Spiroindolinone pyrrolidines” (Hoffman-La Roche Inc., priority 2009, dated 2012).

The target of the assay is interaction between p53 and MDM2 proteins (Homo sapiens, UniProt Q00987). The assay can be described thus: HTRF assay of inhibition of the p53-MDM2 interaction (GST-MDM2 / biotinylated p53 peptide). It counts as binding. Particulars: recombinant GST-tagged MDM2 and biotinylated p53 peptide, bsa:0.02%.
Chain of interaction between p53 and MDM2 proteins (Q00987 whole entry): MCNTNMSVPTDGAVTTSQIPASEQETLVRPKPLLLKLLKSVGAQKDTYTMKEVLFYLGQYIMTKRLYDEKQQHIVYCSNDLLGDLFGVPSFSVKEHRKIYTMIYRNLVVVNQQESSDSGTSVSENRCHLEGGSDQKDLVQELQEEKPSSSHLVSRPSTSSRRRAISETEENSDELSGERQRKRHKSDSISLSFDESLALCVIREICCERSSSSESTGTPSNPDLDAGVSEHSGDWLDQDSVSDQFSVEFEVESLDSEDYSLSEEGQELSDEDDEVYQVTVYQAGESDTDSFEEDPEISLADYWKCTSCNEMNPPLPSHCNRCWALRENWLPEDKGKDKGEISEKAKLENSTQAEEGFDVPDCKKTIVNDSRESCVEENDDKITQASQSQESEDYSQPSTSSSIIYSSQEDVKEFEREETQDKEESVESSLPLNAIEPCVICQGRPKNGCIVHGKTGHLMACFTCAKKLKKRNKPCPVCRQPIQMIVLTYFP

Take `COc1cnccc1NC(=O)[C@@H]1N[C@@H](CC(C)(C)C)[C@@]2(C(=O)Nc3cc(Cl)ccc32)[C@H]1c1cccc(Cl)c1F` (racemic) [Example 162, rac-(2′S,3′R,4′S,5′R)-6-chloro-4′-(3-chloro-2-fluoro-phenyl)-2′-(2,2-dimethyl-propyl)-2-oxo-1,2-dihydro-spiro[indole-3,3′-pyrrolidine]-5′-carboxylic acid (3-methoxy-pyridin-4-yl)-amide]: the IC50 worked out at 19 nM.
With `COc1cc(CC(N)=O)ccc1NC(=O)[C@@H]1N[C@@H](CC(C)(C)C)[C@@]2(C(=O)Nc3cc(Cl)ccc32)[C@H]1c1cccc(Cl)c1F` [Example 161, chiral (2′S,3′R,4′S,5′R)-6-chloro-4′-(3-chloro-2-fluoro-phenyl)-2′-(2,2-dimethyl-propyl)-2-oxo-1,2-dihydro-spiro[indole-3,3′-pyrrolidine]-5′-carboxylic acid (4-carbamoylmethyl-2-methoxy-phenyl)-amide], the half-maximal inhibitory concentration (IC50) came to 4 nM.
`CCCCOc1cc(C(=O)OC)ccc1NC(=O)[C@@H]1N[C@@H](CC(C)(C)C)[C@@]2(C(=O)Nc3cc(Cl)ccc32)[C@H]1c1cccc(Cl)c1F` (racemic) [Example 150, rac-3-butoxy-4-{[(2′S,3′R,4′S,5′R)-6-chloro-4′-(3-chloro-2-fluoro-phenyl)-2′-(2,2-dimethyl-propyl)-2-oxo-1,2-dihydro-spiro[indole-3,3′-pyrrolidine]-5′-carbonyl]-amino}-benzoic acid methyl ester]: the IC50 is 15 nM.
`CC(=O)c1ccc(NC(=O)[C@@H]2N[C@@H](CC(C)(C)C)[C@@]3(C(=O)Nc4cc(Cl)ccc43)[C@H]2c2cccc(Cl)c2F)cc1` [Example 12, chiral (2′S,3′R,4′S,5′R)-6-chloro-4′-(3-chloro-2-fluoro-phenyl)-2′-(2,2-dimethyl-propyl)-2-oxo-1,2-dihydro-spiro[indole-3,3′-pyrrolidine]-5′-carboxylic acid (4-acetyl-phenyl)-amide]: the IC50 turned out to be 6 nM.
Take `CC(C)(C)C[C@@H]1N[C@@H](C(=O)Nc2ccc(C(N)=O)cc2F)[C@H](c2cccc(Cl)c2F)[C@]12C(=O)Nc1cc(Cl)cc(F)c12` (racemic) [Example 79, rac-(2′S,3′R,4′S,5′R)-6-chloro-4′-(3-chloro-2-fluoro-phenyl)-2′-(2,2-dimethyl-propyl)-4-fluoro-2-oxo-1,2-dihydro-spiro[indole-3,3′-pyrrolidine]-5′-carboxylic acid (4-carbamoyl-2-fluoro-phenyl)-amide]: the IC50 stood at 13 nM.
Take `COc1cc(C(=O)O)ccc1NC(=O)[C@@H]1N[C@@H](CC(C)(C)C)[C@@]2(C(=O)Nc3cc(Cl)ccc32)[C@H]1c1cc(F)cc(Cl)c1` (racemic) [Example 125, rac-4-{[(2′S,3′R,4′R,5′R)-6-chloro-4′-(3-chloro-5-fluoro-phenyl)-2′-(2,2-dimethyl-propyl)-2-oxo-1,2-dihydro-spiro[indole-3,3′-pyrrolidine]-5′-carbonyl]-amino}-3-methoxy-benzoic acid]: the IC50 is 7 nM.
`COc1cc(C#N)ccc1NC(=O)[C@@H]1N[C@@H](CC(C)(C)C)[C@@]2(C(=O)Nc3c2ccc(Cl)c3F)[C@H]1c1cccc(Cl)c1F` (racemic) [Example 177, rac-(2′S,3′R,4′S,5′R)-6-chloro-4′-(3-chloro-2-fluoro-phenyl)-2′-(2,2-dimethyl-propyl)-7-fluoro-2-oxo-1,2-dihydro-spiro[indole-3,3′-pyrrolidine]-5′-carboxylic acid (4-cyano-2-methoxy-phenyl)-amide]: the IC50 was 21 nM.
Consider `COc1cc(C#N)ccc1NC(=O)[C@@H]1N[C@@H](CC(C)(C)C)[C@@]2(C(=O)Nc3cc(Cl)ccc32)[C@H]1c1cccc(Cl)c1F` (racemic) [Example 58, rac-(2′S,3′R,4′S,5′R)-6-chloro-4′-(3-chloro-2-fluoro-phenyl)-2′-(2,2-dimethyl-propyl)-2-oxo-1,2-dihydro-spiro[indole-3,3′-pyrrolidine]-5′-carboxylic acid (4-cyano-2-methoxy-phenyl)-amide], for which the IC50 amounted to 23 nM.
In the case of `CC(C)(C)C[C@@H]1N[C@@H](C(=O)Nc2ccc(C(N)=O)cc2)[C@H](c2cccc(Cl)c2F)[C@]12C(=O)Nc1cc(Br)ccc12` (racemic) [Example 94, rac-(2′S,3′R,4′S,5′R)-6-bromo-4′-(3-chloro-2-fluoro-phenyl)-2′-(2,2-dimethyl-propyl)-2-oxo-1,2-dihydro-spiro[indole-3,3′-pyrrolidine]-5′-carboxylic acid (4-carbamoyl-phenyl)-amide], the IC50 came out at 12 nM.
For `CC(C)(C)C[C@@H]1N[C@@H](C(=O)Nc2ccc(C(N)=O)cc2)[C@H](c2cccc(Cl)c2)[C@]12C(=O)Nc1cc(Cl)ccc12` (racemic) [Example 65A, rac-(2′S,3′R,4′R,5′R)-6-chloro-4′-(3-chloro-phenyl)-2′-(2,2-dimethyl-propyl)-2-oxo-1,2-dihydro-spiro[indole-3,3′-pyrrolidine]-5′-carboxylic acid (4-carbamoyl-phenyl)-amide], the IC50 turned out to be 9 nM.
The result for `CC(C)(C)C[C@@H]1N[C@@H](C(=O)Nc2ccc(I)cc2F)[C@H](c2cccc(Cl)c2F)[C@]12C(=O)Nc1cc(Cl)ccc12` (racemic) [Example 51, rac-(2′S,3′R,4′S,5′R)-6-chloro-4′-(3-chloro-2-fluoro-phenyl)-2′-(2,2-dimethyl-propyl)-2-oxo-1,2-dihydro-spiro[indole-3,3′-pyrrolidine]-5′-carboxylic acid (2-fluoro-4-iodo-phenyl)-amide] reads 20 nM; that for `CC(C)(C)C[C@@H]1N[C@@H](C(=O)Nc2ccc(C#N)cc2)[C@H](c2cccc(Cl)c2F)[C@]12C(=O)Nc1cc(Cl)ccc12` (racemic) [Example 7, rac-(2′S,3′R,4′S,5′R)-6-chloro-4′-(3-chloro-2-fluoro-phenyl)-2′-(2,2-dimethyl-propyl)-2-oxo-1,2-dihydro-spiro[indole-3,3′-pyrrolidine]-5′-carboxylic acid (4-cyano-phenyl)-amide], 14 nM.
In the case of `COc1cc(NC(=O)[C@@H]2N[C@@H](CC(C)(C)C)[C@@]3(C(=O)Nc4cc(Cl)ccc43)[C@H]2c2cccc(Cl)c2F)ccc1C(N)=O` (racemic) [Example 22, rac-(2′S,3′R,4′S,5′R)-6-chloro-4′-(3-chloro-2-fluoro-phenyl)-2′-(2,2-dimethyl-propyl)-2-oxo-1,2-dihydro-spiro[indole-3,3′-pyrrolidine]-5′-carboxylic acid (4-carbamoyl-3-methoxy-phenyl)-amide], the IC50 was found to be 11 nM.
In the case of `COc1cc(C(N)=O)ccc1NC(=O)[C@@H]1N[C@@H](CC(C)(C)C)[C@@]2(C(=O)Nc3cc(Cl)cc(F)c32)[C@H]1c1cccc(Cl)c1F` [Example 77, chiral (2′S,3′R,4′S,5′R)-6-chloro-4′-(3-chloro-2-fluoro-phenyl)-2′-(2,2-dimethyl-propyl)-4-fluoro-2-oxo-1,2-dihydro-spiro[indole-3,3′-pyrrolidine]-5′-carboxylic acid (4-carbamoyl-2-methoxy-phenyl)-amide], the IC50 came out at 5 nM.
Turning to `CC(C)(C)C[C@@H]1N[C@@H](C(=O)Nc2ccn(CC(C)(C)O)n2)[C@H](c2cccc(Cl)c2F)[C@]12C(=O)Nc1cc(Cl)ccc12` (racemic) [Example 55, rac-(2′S,3′R,4′S,5′R)-6-chloro-4′-(3-chloro-2-fluoro-phenyl)-2′-(2,2-dimethyl-propyl)-2-oxo-1,2-dihydro-spiro[indole-3,3′-pyrrolidine]-5′-carboxylic acid [1-(2-hydroxy-2-methyl-propyl)-1H-pyrazol-3-yl]-amide trifluoroacetic acid], the IC50 is 13 nM.
Regarding `COc1cc(C#N)ccc1NC(=O)[C@@H]1N[C@@H](CC(C)(C)C)[C@@]2(C(=O)Nc3cc(Cl)ccc32)[C@H]1c1cc(F)cc(Cl)c1` (racemic) [Example 114, rac-(2′S,3′R,4′R,5′R)-6-chloro-4′-(3-chloro-5-fluoro-phenyl)-2′-(2,2-dimethyl-propyl)-2-oxo-1,2-dihydro-spiro[indole-3,3′-pyrrolidine]-5′-carboxylic acid (4-cyano-2-methoxy-phenyl)-amide], the IC50 was found to be 12 nM.
As for `CC(C)(C)C[C@@H]1N[C@@H](C(=O)Nc2cnc(C(N)=O)nc2)[C@H](c2cccc(Cl)c2F)[C@]12C(=O)Nc1cc(Cl)ccc12` (racemic) [Example 185, rac-(2′S,3′R,4′S,5′R)-6-chloro-4′-(3-chloro-2-fluoro-phenyl)-2′-(2,2-dimethyl-propyl)-2-oxo-1,2-dihydro-spiro[indole-3,3′-pyrrolidine]-5′-carboxylic acid (2-carbamoyl-pyrimidin-5-yl)-amide], the IC50 is 16 nM.
With `COc1cc(C(N)=O)ccc1NC(=O)[C@@H]1N[C@@H](CC(C)(C)C)[C@@]2(C(=O)Nc3cc(Cl)ccc32)[C@H]1c1cccc(Cl)c1F` [Example 60, chiral (2′S,3′R,4′S,5′R)-6-chloro-4′-(3-chloro-2-fluoro-phenyl)-2′-(2,2-dimethyl-propyl)-2-oxo-1,2-dihydro-spiro[indole-3,3′-pyrrolidine]-5′-carboxylic acid (4-carbamoyl-2-methoxy-phenyl)-amide], the IC50 was determined as 5 nM.
Regarding `COc1cc(C(N)=O)ccc1NC(=O)[C@@H]1N[C@@H](CC(C)(C)C)[C@@]2(C(=O)Nc3cc(Cl)ccc32)[C@H]1c1cc(F)cc(Cl)c1` (racemic) [Example 115, rac-(2′S,3′R,4′R,5′R)-6-chloro-4′-(3-chloro-5-fluoro-phenyl)-2′-(2,2-dimethyl-propyl)-2-oxo-1,2-dihydro-spiro[indole-3,3′-pyrrolidine]-5′-carboxylic acid (4-carbamoyl-2-methoxy-phenyl)-amide], the IC50 came to 6 nM.
With `CC(C)(C)C[C@@H]1N[C@@H](C(=O)Nc2ccc(C(N)=O)cc2)[C@H](c2cccc(Cl)c2F)[C@]12C(=O)Nc1cc(Cl)cc(F)c12` (racemic) [Example 73, rac-(2′S,3′R,4′S,5′R)-6-chloro-4′-(3-chloro-2-fluoro-phenyl)-2′-(2,2-dimethyl-propyl)-4-fluoro-2-oxo-1,2-dihydro-spiro[indole-3,3′-pyrrolidine]-5′-carboxylic acid (4-carbamoyl-phenyl)-amide], the IC50 worked out at 11 nM.
